The structures appear in SMILES notation.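 Each compound was tested at five concentrations against cells in 96-well plates for 48 hours. At the GI50, growth is halved.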 Active and inactive are the calls of the source. Cut-off read from the data, not from the text of the source: active = GI50 up to about 1.1 µM and inactive = higher.

The values below come from ChEMBL document CHEMBL1201862, “PubChem BioAssay data set” (2004).

Some test systems named below: HOP-92; DLD-1; UO-31; SF-268; CAKI-1; HCT-116; A549; SN12C; SW-620; SF-295; TK-10; COLO 205; OVCAR-5; HT-29; BT-549; PC-3; RPMI-8226; A498; Hs-578T; DU-145.
Common to all, as to test: NCI-60 cell line screen, 48 h

As for `O=c1nc2sc3ccc4ccccc4c3n2nc1-c1ccccc1`, the GI50 in the test with HOP-92 was 21.4 µM (inactive); in the test with DLD-1 it was 35.6 µM (inactive); with UO-31 it was 22.3 µM (inactive); in the test with SF-268, 37.3 µM (inactive); in the test on CAKI-1 it was 31.1 µM (inactive); in the test on HCT-116 it was 21.7 µM (inactive). The GI50 with A549 is 28.6 µM (inactive); with SN12C it was 27.2 µM (inactive); with SW-620, 32.5 µM (inactive); in the test with SF-295, 16.8 µM (inactive); with TK-10, 23.1 µM (inactive); in the test with COLO 205, 56.2 µM (inactive). Further, the GI50 is > 100 µM (inactive) in the test on OVCAR-5 and 94.8 µM (inactive) in the test with HT-29.

Take `CSC(CC(=O)O)C(=O)O` (stereo not drawn): the GI50 with HOP-92, in the test with UO-31, in the test on BT-549, in the test on PC-3, in the test on RPMI-8226 and with SF-268 was > 100 µM (inactive) throughout. Moreover, the GI50 in the test on CAKI-1, in the test on A498, with HCT-116, in the test with A549, in the test with SN12C and in the test on Hs-578T was > 100 µM (inactive) in each case. The GI50 in the test with SW-620, in the test with SF-295, in the test on DU-145, with TK-10, with COLO 205 and in the test with OVCAR-5 was > 100 µM (inactive) throughout. Moreover, the GI50 in the test with HT-29 is > 100 µM (inactive).

Turning to `C1CCOC2(CCC3(CC2)OCCCCO3)OC1`, the GI50 in the test with DLD-1, with UO-31, with RPMI-8226, in the test on SF-268, with CAKI-1 and with A498 was > 100 µM (inactive) throughout. Moreover, the GI50 in the test on HCT-116, with A549, in the test with SN12C, in the test on SW-620, with TK-10 and in the test on COLO 205 was > 100 µM (inactive) in each case.

On to `CCOC(=O)CN1C(=O)c2c(c(C)n(-c3ccccc3)c2C)C1=O`, for which the GI50 in the test on HOP-92, in the test with UO-31, in the test with BT-549, in the test with PC-3, in the test on RPMI-8226 and in the test on SF-268 was > 100 µM (inactive) in each case. For the same compound, the GI50 in the test on CAKI-1, in the test with A498, in the test with HCT-116, in the test on A549, in the test with SN12C and with Hs-578T was > 100 µM (inactive) throughout. Moreover, the GI50 in the test with SW-620, in the test with SF-295, in the test with DU-145, in the test with TK-10, in the test with COLO 205 and in the test on OVCAR-5 was > 100 µM (inactive) in each case. Further, the GI50 in the test on HT-29 was > 100 µM (inactive).

As for `S=C=NCc1ccccc1` [BENZYL ISOTHIOCYANATE], the GI50 was 5.77 µM (inactive) in the test with HOP-92; 2.72 µM (inactive) in the test with UO-31; 2.32 µM (inactive) in the test with BT-549; 4.1 µM (inactive) with PC-3; 0.456 µM (active) in the test with RPMI-8226; 3.35 µM (inactive) in the test with SF-268. The GI50 with CAKI-1 was 1.85 µM (inactive); with A498 it was 4.13 µM (inactive); in the test with HCT-116, 0.604 µM (active); in the test on A549 it was 4.49 µM (inactive); in the test on SN12C, 3.7 µM (inactive); in the test on Hs-578T, 7.08 µM (inactive). Also, the GI50 in the test on SW-620 was 2.35 µM (inactive); in the test on SF-295, 4.82 µM (inactive); in the test on DU-145 it was 4.13 µM (inactive); in the test on TK-10, 4.37 µM (inactive); in the test on COLO 205 it was 1.51 µM (inactive); in the test with OVCAR-5, 10.9 µM (inactive). Also, in the test on HT-29, the GI50 was 2.47 µM (inactive).
